The subject of one test is LNCaP cells. Nature of the test: Assay on inhibitory activity for LNCaP cell proliferation (CCK-8). Type of test: cell-based. Particulars: Homo sapiens, 168 h incubation. The method, boiled down: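 Cells seeded at 1×10^5 cells/mL in phenol red-free 1640 with 2% CSS-FBS, treated at final 10000 nM-0.61 nM in duplicate. After 168 h incubation, viability read with CCK-8.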

The target in the next test is T1, AR in LNCaP cells (Homo sapiens, UniProt P10275, T878A).
T1 construct: Assay on Degradation Activity for AR in LNCaP Cells; endogenous in cells; host or cells: LNCaP cells
T1 sequence (P10275 1-920 T878A): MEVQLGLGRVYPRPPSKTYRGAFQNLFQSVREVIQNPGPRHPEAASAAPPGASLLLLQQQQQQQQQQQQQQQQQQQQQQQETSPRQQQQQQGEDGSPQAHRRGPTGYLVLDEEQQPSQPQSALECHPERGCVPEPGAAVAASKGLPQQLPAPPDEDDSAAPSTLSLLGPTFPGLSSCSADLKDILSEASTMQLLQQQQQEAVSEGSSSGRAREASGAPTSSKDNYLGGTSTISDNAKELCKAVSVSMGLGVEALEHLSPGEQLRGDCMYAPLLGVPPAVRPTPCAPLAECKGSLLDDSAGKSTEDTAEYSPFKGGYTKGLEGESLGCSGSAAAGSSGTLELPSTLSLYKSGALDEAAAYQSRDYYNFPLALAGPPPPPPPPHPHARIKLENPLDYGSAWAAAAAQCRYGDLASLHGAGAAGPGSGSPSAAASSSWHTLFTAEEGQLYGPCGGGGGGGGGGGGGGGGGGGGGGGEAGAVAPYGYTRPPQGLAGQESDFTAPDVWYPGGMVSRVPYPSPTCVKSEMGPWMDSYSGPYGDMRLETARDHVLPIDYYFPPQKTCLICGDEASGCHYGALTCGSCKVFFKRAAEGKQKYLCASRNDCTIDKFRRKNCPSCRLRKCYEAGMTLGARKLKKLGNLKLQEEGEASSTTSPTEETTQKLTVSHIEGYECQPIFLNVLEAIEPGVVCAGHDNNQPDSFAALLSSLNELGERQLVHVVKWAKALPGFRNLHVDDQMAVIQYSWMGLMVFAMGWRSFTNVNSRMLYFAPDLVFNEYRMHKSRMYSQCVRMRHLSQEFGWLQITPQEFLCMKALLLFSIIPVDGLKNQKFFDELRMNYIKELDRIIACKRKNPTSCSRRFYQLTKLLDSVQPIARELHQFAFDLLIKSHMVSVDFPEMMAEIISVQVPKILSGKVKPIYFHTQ
The test is described as follows: Assay on degradation activity for AR in LNCaP cells (HTRF human androgen receptor detection kit). To be noted: 24 h incubation. The format is cell-based. The method, boiled down: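 LNCaP cells seeded in 2% CSS-FBS phenol red-free 1640 medium overnight, then treated in duplicate with 500 nM–0.488 nM compound for 24 h. AR in lysates quantified by HTRF (Eu cryptate/d2 antibodies, 2 h, 25 °C, 665/620 nm); DC50 and Dmax from four-parameter fits.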

pIC50: −log10 of the molar value.

Consider `N#Cc1ccc(O[C@H]2CC[C@H](NC(=O)c3ccc(C4CCN(C5CN(c6cc7onc(C8CCC(=O)NC8=O)c7c7ccccc67)C5)CC4)nn3)CC2)cc1Cl` (stereo partly drawn) [Compound 48], for which, in the test with LNCaP cells, the pIC50 is greater than 6.00. On AR in LNCaP cells (HTRF), this compound showed a half-maximal degradation concentration (DC50) of no more than 0.02 µM. Moreover, the Dmax on AR in LNCaP cells (maximum degradation rate) was greater than 80%.

Values taken from US20260035384A1, “COMPOUND CONTAINING CYCLOHEXYL” (CHIA TAI TIANQING PHARMACEUTICAL GROUP CO., LTD., priority 2022, published 2026).
